Source: PubChem BioAssay (NCI)
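Five concentrations, 48 hours, 96-well plates. TGI marks complete inhibition of growth.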

Experiments:
Experiment in all cases: NCI-60 cell line screen, 48 h
SF-295 CNS = system: SF-295 CNS
IGROV1 ovarian = system: IGROV1 ovarian
MDA-N = system: MDA-N
SR leukemia = system: SR leukemia
HCT-15 colon = system: HCT-15 colon
MCF7 breast = system: MCF7 breast
RXF 393 renal = system: RXF 393 renal
NCI/ADR-RES ovarian = system: NCI/ADR-RES ovarian
NCI-H23 lung = system: NCI-H23 lung
SK-OV-3 ovarian = system: SK-OV-3 ovarian
NCI-H226 lung = system: NCI-H226 lung
HT29 colon = system: HT29 colon
BT-549 breast = system: BT-549 breast
CCRF-CEM leukemia = system: CCRF-CEM leukemia
HCT-116 colon = system: HCT-116 colon
SF-268 CNS = system: SF-268 CNS
SNB-75 CNS = system: SNB-75 CNS
MOLT-4 leukemia = system: MOLT-4 leukemia
RPMI-8226 leukemia = system: RPMI-8226 leukemia
SNB-19 CNS = system: SNB-19 CNS
HOP-62 NSCLC = system: HOP-62 NSCLC
DU-145 prostate = system: DU-145 prostate
SN12C renal = system: SN12C renal
NCI-H460 lung = system: NCI-H460 lung
COLO 205 colon = system: COLO 205 colon
NCI-H522 lung = system: NCI-H522 lung
ACHN renal = system: ACHN renal
LOX IMVI melanoma = system: LOX IMVI melanoma
SK-MEL-5 melanoma = system: SK-MEL-5 melanoma
U251 CNS = system: U251 CNS
OVCAR-5 ovarian = system: OVCAR-5 ovarian
K-562 leukemia = system: K-562 leukemia
TK-10 renal = system: TK-10 renal
OVCAR-3 ovarian = system: OVCAR-3 ovarian
SK-MEL-28 melanoma = system: SK-MEL-28 melanoma
HS 578T breast = system: HS 578T breast
EKVX NSCLC = system: EKVX NSCLC
UACC-62 melanoma = system: UACC-62 melanoma
MDA-MB-435 = system: MDA-MB-435
T-47D breast = system: T-47D breast
UO-31 renal = system: UO-31 renal
A549 NSCLC = system: A549 NSCLC
CAKI-1 renal = system: CAKI-1 renal
OVCAR-8 ovarian = system: OVCAR-8 ovarian
KM12 colon = system: KM12 colon
M14 melanoma = system: M14 melanoma
UACC-257 melanoma = system: UACC-257 melanoma
MDA-MB-231 breast = system: MDA-MB-231 breast
MALME-3M melanoma = system: MALME-3M melanoma
PC-3 prostate = system: PC-3 prostate
786-0 renal = system: 786-0 renal
OVCAR-4 ovarian = system: OVCAR-4 ovarian
HCC-2998 colon = system: HCC-2998 colon
SW-620 colon = system: SW-620 colon
SK-MEL-2 melanoma = system: SK-MEL-2 melanoma
HOP-92 NSCLC = system: HOP-92 NSCLC
SF-539 CNS = system: SF-539 CNS
HL-60(TB) leukemia = system: HL-60(TB) leukemia

Q: Which results are given for S=C1CC(c2ccccc2)Sc2cc(Cl)ccc2N1 (stereo not given)?
A: TGI (SF-295 CNS): 12.6 µM; TGI (IGROV1 ovarian): 84.5 µM; TGI (MDA-N): 39.6 µM; TGI (SR leukemia): 83.7 µM; TGI (HCT-15 colon): > 100 µM; TGI (MCF7 breast): 34.8 µM; TGI (RXF 393 renal): 18.1 µM; TGI (NCI/ADR-RES ovarian): 30.5 µM; TGI (NCI-H23 lung): 22.2 µM; TGI (SK-OV-3 ovarian): 19.9 µM; TGI (NCI-H226 lung): 32.7 µM; TGI (HT29 colon): > 100 µM; TGI (BT-549 breast): > 100 µM; TGI (CCRF-CEM leukemia): 9.33 µM; TGI (HCT-116 colon): 17.2 µM; TGI (SF-268 CNS): 24.7 µM; TGI (SNB-75 CNS): 20.8 µM; TGI (MOLT-4 leukemia): 28.2 µM; TGI (RPMI-8226 leukemia): > 100 µM; TGI (SNB-19 CNS): 38.7 µM; TGI (HOP-62 NSCLC): 18.4 µM; TGI (DU-145 prostate): > 100 µM; TGI (SN12C renal): > 100 µM; TGI (NCI-H460 lung): 22.8 µM; TGI (COLO 205 colon): > 100 µM; TGI (NCI-H522 lung): 16.9 µM; TGI (ACHN renal): 27 µM; TGI (LOX IMVI melanoma): > 100 µM; TGI (SK-MEL-5 melanoma): 29.4 µM; TGI (U251 CNS): 17.7 µM; TGI (OVCAR-5 ovarian): > 100 µM; TGI (K-562 leukemia): 11.2 µM; TGI (TK-10 renal): 38.9 µM; TGI (OVCAR-3 ovarian): 8.49 µM; TGI (SK-MEL-28 melanoma): 51.8 µM; TGI (HS 578T breast): 84 µM; TGI (EKVX NSCLC): > 100 µM; TGI (UACC-62 melanoma): 44.9 µM; TGI (MDA-MB-435): 30 µM; TGI (T-47D breast): > 100 µM; TGI (UO-31 renal): > 100 µM; TGI (A549 NSCLC): 38.4 µM; TGI (CAKI-1 renal): 29 µM; TGI (OVCAR-8 ovarian): 31.3 µM; TGI (KM12 colon): > 100 µM; TGI (M14 melanoma): > 100 µM; TGI (UACC-257 melanoma): > 100 µM; TGI (MDA-MB-231 breast): 20.7 µM; TGI (MALME-3M melanoma): 93.6 µM; TGI (PC-3 prostate): > 100 µM; TGI (786-0 renal): 17.7 µM; TGI (OVCAR-4 ovarian): 28 µM

Q: For O=C(O)CCCN=C(C1=C(O)C(=O)N(c2ccccc2)C1=O)c1ccccc1, which TGI (SF-295 CNS) is on record?
A: > 100 µM

Q: What about the TGI (IGROV1 ovarian) of the same compound?
A: > 100 µM

Q: What about the TGI (HCC-2998 colon) of the same compound?
A: > 100 µM

Q: And the TGI (MDA-N)?
A: > 100 µM

Q: What about the TGI (SR leukemia) of the same compound?
A: 64.9 µM

Q: What about the TGI (HCT-15 colon) of the same compound?
A: > 100 µM

Q: And the TGI (MCF7 breast)?
A: > 100 µM

Q: What about the TGI (RXF 393 renal) of the same compound?
A: > 100 µM

Q: And the TGI (NCI/ADR-RES ovarian)?
A: > 100 µM

Q: And the TGI (NCI-H23 lung)?
A: > 100 µM

Q: What about the TGI (SK-OV-3 ovarian) of the same compound?
A: > 100 µM

Q: And the TGI (NCI-H226 lung)?
A: > 100 µM

Q: What about the TGI (HT29 colon) of the same compound?
A: > 100 µM

Q: What about the TGI (BT-549 breast) of the same compound?
A: > 100 µM

Q: And the TGI (CCRF-CEM leukemia)?
A: > 100 µM

Q: What about the TGI (HCT-116 colon) of the same compound?
A: > 100 µM

Q: What about the TGI (SF-268 CNS) of the same compound?
A: > 100 µM

Q: What about the TGI (SNB-75 CNS) of the same compound?
A: > 100 µM

Q: What about the TGI (MOLT-4 leukemia) of the same compound?
A: > 100 µM

Q: And the TGI (RPMI-8226 leukemia)?
A: > 100 µM

Q: And the TGI (SNB-19 CNS)?
A: > 100 µM

Q: What about the TGI (SW-620 colon) of the same compound?
A: > 100 µM

Q: What about the TGI (HOP-62 NSCLC) of the same compound?
A: > 100 µM

Q: What about the TGI (DU-145 prostate) of the same compound?
A: > 100 µM

Q: What about the TGI (SN12C renal) of the same compound?
A: > 100 µM

Q: What about the TGI (SK-MEL-2 melanoma) of the same compound?
A: > 100 µM

Q: And the TGI (NCI-H460 lung)?
A: > 100 µM

Q: What about the TGI (COLO 205 colon) of the same compound?
A: > 100 µM

Q: What about the TGI (NCI-H522 lung) of the same compound?
A: > 100 µM

Q: And the TGI (ACHN renal)?
A: > 100 µM

Q: And the TGI (LOX IMVI melanoma)?
A: > 100 µM

Q: And the TGI (SK-MEL-5 melanoma)?
A: > 100 µM

Q: And the TGI (U251 CNS)?
A: > 100 µM

Q: And the TGI (OVCAR-5 ovarian)?
A: > 100 µM

Q: And the TGI (K-562 leukemia)?
A: > 100 µM

Q: And the TGI (TK-10 renal)?
A: > 100 µM

Q: And the TGI (HOP-92 NSCLC)?
A: > 100 µM

Q: And the TGI (OVCAR-3 ovarian)?
A: > 100 µM

Q: And the TGI (SK-MEL-28 melanoma)?
A: > 100 µM

Q: What about the TGI (HS 578T breast) of the same compound?
A: > 100 µM

Q: And the TGI (EKVX NSCLC)?
A: > 100 µM

Q: What about the TGI (UACC-62 melanoma) of the same compound?
A: > 100 µM

Q: What about the TGI (MDA-MB-435) of the same compound?
A: > 100 µM

Q: What about the TGI (T-47D breast) of the same compound?
A: > 100 µM

Q: What about the TGI (SF-539 CNS) of the same compound?
A: > 100 µM

Q: What about the TGI (UO-31 renal) of the same compound?
A: > 100 µM

Q: What about the TGI (A549 NSCLC) of the same compound?
A: > 100 µM

Q: What about the TGI (CAKI-1 renal) of the same compound?
A: > 100 µM

Q: What about the TGI (OVCAR-8 ovarian) of the same compound?
A: > 100 µM

Q: And the TGI (KM12 colon)?
A: > 100 µM

Q: And the TGI (HL-60(TB) leukemia)?
A: > 100 µM

Q: And the TGI (M14 melanoma)?
A: > 100 µM

Q: And the TGI (UACC-257 melanoma)?
A: > 100 µM

Q: What about the TGI (MDA-MB-231 breast) of the same compound?
A: > 100 µM

Q: What about the TGI (MALME-3M melanoma) of the same compound?
A: > 100 µM

Q: And the TGI (PC-3 prostate)?
A: > 100 µM

Q: And the TGI (786-0 renal)?
A: > 100 µM

Q: What about the TGI (OVCAR-4 ovarian) of the same compound?
A: > 100 µM
